Test results reported in paper PMC12390684 (Viruses, 2025).

What follows are molecules tested against IN-GCN2 interaction (6xHis-IN / GST-GCN2) (UniProt P04585+Q9P2K8) (assay: biochemical). Conditions: screen, 100 µM; inactive = within 10% of the DMSO control.
Format: binding, HIV-1 IN; human GCN2

IN-GCN2 interaction (6xHis-IN / GST-GCN2), sequence (Q9P2K8 192-1024, other chains not shown): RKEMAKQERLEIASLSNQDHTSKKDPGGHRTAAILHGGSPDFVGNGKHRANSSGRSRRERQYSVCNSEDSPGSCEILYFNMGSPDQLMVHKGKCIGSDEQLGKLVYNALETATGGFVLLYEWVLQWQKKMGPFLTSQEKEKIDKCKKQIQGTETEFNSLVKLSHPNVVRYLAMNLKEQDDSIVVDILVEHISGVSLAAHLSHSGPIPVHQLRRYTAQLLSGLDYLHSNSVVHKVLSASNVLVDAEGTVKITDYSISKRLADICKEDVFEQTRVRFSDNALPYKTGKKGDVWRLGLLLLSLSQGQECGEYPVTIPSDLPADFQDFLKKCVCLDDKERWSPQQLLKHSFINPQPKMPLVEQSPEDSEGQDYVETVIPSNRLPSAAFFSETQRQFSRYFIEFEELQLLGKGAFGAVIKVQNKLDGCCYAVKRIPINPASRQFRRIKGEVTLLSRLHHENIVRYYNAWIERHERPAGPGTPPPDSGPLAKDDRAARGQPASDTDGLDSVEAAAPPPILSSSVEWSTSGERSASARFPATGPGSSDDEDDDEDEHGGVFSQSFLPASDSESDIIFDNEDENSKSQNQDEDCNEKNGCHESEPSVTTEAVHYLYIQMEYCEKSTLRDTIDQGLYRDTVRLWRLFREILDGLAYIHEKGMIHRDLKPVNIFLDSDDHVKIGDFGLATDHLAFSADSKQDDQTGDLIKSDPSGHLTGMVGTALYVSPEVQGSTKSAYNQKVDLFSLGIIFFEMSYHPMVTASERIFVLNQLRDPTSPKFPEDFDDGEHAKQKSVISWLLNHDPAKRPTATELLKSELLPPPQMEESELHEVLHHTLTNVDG

Row | SMILES | effect on IN-GCN2 interaction in the screen, in words
1 | COc1ccc2c(c1OC)CN1CCc3cc4c(cc3C1C2)OCO4 (stereo not drawn) [NSC36351] | inactive

Same assay, conditions: screen, single dose 100 µM, single replicate; residual AlphaLISA signal normalized to DMSO control

Row | SMILES | IN-GCN2 interaction (%)
2 | CN1CCc2cc3c(cc2[C@H]1[C@@H]1OC(=O)c2c1ccc1c2OCO1)OCO3 [NSC32192] | 122.62
3 | CC(=O)O[C@@]1(C)C[C@@H]([C@H](O)CC2CC(=O)NC(=O)C2)C(=O)[C@@H](C)C1 [NSC32743] | 79.33
4 | CC[C@H]1CN2CCc3cc(OC)c(OC)cc3[C@@H]2C[C@@H]1C[C@H]1NCCc2cc(O)c(OC)cc21 [NSC32944] | 81.67
5 | COc1ccc2c(c1O)-c1c(OC)c(OC)cc3c1[C@H](C2)N(C)CC3 [NSC32979] | 119.47
6 | COc1cc(/C=C/C(=O)CC(=O)/C=C/c2ccc(O)c(OC)c2)ccc1O [NSC32982] | 15.01
7 | COc1cc2c(cc1OC)C(=O)Cc1ccc3c(c1CN(C)CC2)OCO3 [NSC32984] | 91.01
8 | COc1cc2c(c(OC)c1OC)-c1ccc(OC)c(=O)cc1[C@@H](NC(=O)c1ccccc1)CC2 [NSC33410] | 67.25
9 | COC(=O)CC[C@@H](C)[C@H]1CC[C@@]2(C)[C@@H]3C(=O)C[C@H]4C(C)(C)[C@@H](OC(C)=O)CC[C@]4(C)[C@H]3C(=O)C[C@]12C [NSC34202] | 97.47
10 | [O-][N+]12CCCCC1CCCC2CO (stereo not drawn) [NSC34552] | 80.42
11 | COc1c2c(c3c(c1OC)c(=O)c1ccccc1n3C)OCO2 [NSC34758] | 105.30
12 | COc1ccc(CC2=NCCc3cc(OC)c(OC)cc32)cc1OC.O=C(O)C(=O)O [NSC35550] | 110.36
13 | CC1CCC2C(C)C3C(CC4C5CC=C6CC(OC7OC(CO)C(O)C(OC8OC(CO)C(O)C(O)C8O)C7OC7OC(C)C(O)C(O)C7O)CCC6(C)C5CCC43C)N2C1.Cl (stereo not drawn) [NSC35611] | 109.39
14 | O=c1c(O)cccc2cc(O)c(O)c(O)c12 [NSC35676] | 61.12
15 | COc1c2c(cc(O)c1C(C)=O)OC(C)(C)C=C2 [NSC36294] | 109.95
16 | COc1ccc2c(c1OC)CN1CCc3cc4c(cc3C1C2)OCO4 (stereo not drawn) [NSC36351] | 108.61
17 | O=C1c2cc(O)c(O)cc2OC(c2ccc(O)c(O)c2)C1O (stereo not drawn) [NSC36398] | 108.22
18 | COc1cc([C@@H]2c3cc4c(cc3[C@H](O)[C@H]3COC(=O)[C@@H]23)OCO4)cc(OC)c1OC [NSC36407] | 109.04
19 | CC1(C)O[C@H]2CC(=O)OC[C@]23[C@H]2CC[C@@]4(C)[C@H](c5ccoc5)OC(=O)[C@H]5O[C@]54[C@]2(C)C(=O)C[C@@H]13 [NSC36508] | 112.07
20 | C[C@@H]1C[C@H]2OC(=O)[C@@]3(C)CCC[C@@](C)([C@@H]23)[C@@]1(O)CCc1ccoc1 [NSC36693] | 92.00
21 | CCOC(=O)CCCCCCCCCCCCC1C=CCC1 (stereo not drawn) [NSC38010] | 104.59
22 | CO[C@@H]1[C@H](O)C[C@@H](O[C@H]2[C@@H](C)O[C@@H](Oc3cc(O)c4c(O)c5c(cc4c3)C[C@@H]([C@H](OC)C(=O)[C@@H](O)[C@@H](C)O)[C@H](O[C@H]3C[C@@H](O[C@H]4C[C@@H](O[C@H]6C[C@](C)(O)[C@@H](OC(=O)C(C)C)[C@H](C)O6)[C@H](O)[C@@H](C)O4)[C@H](O)[C@@H](C)O3)C5=O)C[C@H]2OC(C)=O)O[C@@H]1C [NSC38270] | 113.18
23 | CC1=C2[C@H]3OC(=O)[C@@H](C)[C@@H]3CC[C@@]2(C)C=C/C1=N\O [NSC42038] | 112.40
24 | CC(C)=CCc1ccc(O)c(=O)cc1C(C)C [NSC43339] | 101.87
25 | CN1[C@@H]2CC[C@H]1CC(O)C2 (stereo partly drawn) [NSC43871] | 99.50
26 | O=P(O)(O)OC1OC(CO)C(O)C(O)C1O (stereo not drawn) [NSC44138] | 105.48
27 | O=C1C(O)=C(c2ccccc2)C(=O)C(O)=C1c1ccccc1 [NSC44175] | 117.13
28 | COC1=C(N)C(=O)c2nc(-c3nc(C(=O)O)c(C)c(-c4ccc(OC)c(OC)c4O)c3N)ccc2C1=O [NSC45383] | 84.72

Row | SMILES | IN-GCN2 interaction (%)
29 | COC(=O)c1nc(-c2ccc3c(n2)C(=O)C(N)=C(OC)C3=O)c(N)c(-c2ccc(OC)c(OC)c2O)c1C [NSC45384] | 82.84
30 | COc1c2occc2cc2ccc(=O)oc12 [NSC45923] | 121.17
31 | CC(C)C[C@H](N)C(=O)O [NSC46709] | 84.16
32 | COc1cc2c(cc1OC)C(O)C(O)(CO)C(C(=O)O)C2c1cc(OC)c(OC)c(OC)c1 (stereo not drawn) [NSC50131] | 78.06
33 | COc1cc2c(cc1OC)C(c1cc(OC)c(OC)c(OC)c1)C1(O)C(=O)OCC1(O)C2 (stereo not drawn) [NSC50132] | 86.33
34 | O=C1CC(c2ccccc2)Oc2ccccc21 (stereo not drawn) [NSC50393] | 103.95
35 | CO[C@@H]1[C@@H](O[C@@H]2O[C@H](C)[C@@H](O[C@H]3C[C@@](C)(O)[C@@H](OC(=O)CC(C)C)[C@H](C)O3)[C@H](N(C)C)[C@H]2O)[C@@H](CC=O)C[C@@H](C)C(=O)/C=C/[C@@H]2O[C@H]2C[C@@H](C)OC(=O)C[C@H]1OC(C)=O [NSC51001] | 99.20
36 | COc1cc(O)c(C(=O)/C=C/c2ccccc2)c(OC)c1 [NSC51351] | 51.53
37 | CO[C@@]12[C@H](COC(N)=O)C3=C(C(=O)C(C)=C(N)C3=O)N1C[C@H]1[C@@H]2N1C (stereo partly drawn) [NSC56410] | 73.33
38 | CCN1C[C@]2(COC)[C@H](O)C[C@H](OC)[C@@]34[C@@H]5C[C@@]6(O)[C@H](OC(=O)c7ccccc7)[C@@H]5[C@@](OC(C)=O)([C@@H]([C@H](OC)[C@H]23)[C@@H]14)[C@@H](O)[C@@H]6OC [NSC56464] | 148.00
39 | C1CCC(NC2CCCCC2)CC1.COC1C(OC(=O)/C=C/C=C/C=C/C=C/C(=O)O)CCC2(CO2)C1C1(C)OC1CC=C(C)C (stereo not drawn) [NSC58368] | 95.05
40 | CSC[S@@+]([O-])CC(CO)NC(=O)/C=C/c1c(C)[nH]c(=O)[nH]c1=O (stereo partly drawn) [NSC59729] | 102.04
41 | COc1cc2c3c(c4ccc(OC)c(OC)c4c2cc1OC)CN1CCC[C@@H]1C3 [NSC60387] | 110.26
42 | C[N+]1(C)C2CC(OC(=O)C(CO)c3ccccc3)CC1C1OC12 (stereo not drawn) [NSC61809] | 93.88
43 | COc1ccc(-c2c(C)c(C(=O)O)nc(-c3ccc4c(O)c(OC)c5c(c4n3)=NC(C)(C)N=5)c2N)c(O)c1OC [NSC62709] | 123.77
44 | CNC[C@H](O)c1ccc(O)c(O)c1 [NSC62786] | 108.20
45 | CC[C@H]1OC(=O)[C@H](C)[C@@H](OC2CC(C)(OC)C(O)C(C)O2)[C@H](C)[C@@H](OC2OC(C)CC(N(C)C)C2OC(=O)CCC2CCCC2)[C@](C)(O)C[C@@H](C)C(=O)[C@H](C)[C@@H](O)[C@]1(C)O (stereo partly drawn) [NSC63946] | 43.14
46 | CC(C)[C@]12CC(=O)[C@@H](C)[C@H]1C2 [NSC67392] | 80.58
47 | CC[C@]1(O)C[C@H]2CN(CCc3c([nH]c4ccccc34)[C@@](C(=O)OC)(c3cc4c(cc3OC)N(C=O)[C@H]3[C@@](O)(C(=O)OC)[C@H](OC(C)=O)[C@]5(CC)C=CCN6CC[C@]43[C@@H]65)C2)C1 [NSC67574] | 113.01
48 | COc1ccc2[nH]c3c(C)c4ccncc4c(C)c3c2c1 [NSC69187] | 42.76
49 | CC1=C(O)C(=O)C=C2C1=CC=C1[C@@]2(C)CC[C@@]2(C)[C@@H]3C[C@](C)(C(=O)O)CC[C@]3(C)CC[C@]12C [NSC70931] | 100.77
50 | Cc1c2ccncc2c(C)c2c1[nH]c1ccccc12 [NSC71795] | 107.18
51 | COC(=O)[C@@H]1[C@H]2C[C@@H]3c4[nH]c5ccccc5c4CCN3C[C@@H]2CC[C@@H]1O [NSC72116] | 99.30
52 | COC(=O)[C@H]1[C@H]2C[C@@H]3c4[nH]c5ccccc5c4CCN3C[C@H]2C[C@@H](OC(=O)c2cc(OC)c(OC)c(OC)c2)[C@@H]1OC [NSC72138] | 30.11
53 | COC(=O)C1=COC(C)C2CN3CCc4c([nH]c5cc(OC)c(OC)cc45)C3CC12.O=C(O)CC(O)(CC(=O)O)C(=O)O (stereo not drawn) [NSC72715] | 63.54
54 | C[N+]1([O-])[C@@H]2CC[C@H]1CC(OC(=O)C(CO)c1ccccc1)C2 (stereo partly drawn) [NSC72861] | 92.58
55 | COc1ccc2c(c1)[C@@]13CCN4CC5=CCO[C@H]6CC(=O)N2[C@H]1[C@H]6[C@H]5C[C@H]43 [NSC72862] | 85.38

Same assay, conditions: screen, single dose 100 µM, single replicate; residual AlphaLISA signal normalized to DMSO control; listed as 36437

Row | SMILES | IN-GCN2 interaction (%)
56 | C=C1C(=O)OC2CC1C(OC(C)=O)C/C(C)=C/CC/C(C)=C\CCC2(C)O (stereo not drawn) [NSC36437] | 73.91

Same assay, conditions: screen, single dose 100 µM, single replicate; residual AlphaLISA signal normalized to DMSO control; listed as 43338

Row | SMILES | IN-GCN2 interaction (%)
57 | CC(C)c1ccc(O)c(=O)cc1 [NSC43338] | 100.42

Same assay, conditions: screen, single dose 100 µM, single replicate; residual AlphaLISA signal normalized to DMSO control; listed as 46728

Row | SMILES | IN-GCN2 interaction (%)
58 | C=C1C(=O)OC2CC1C(OC(C)=O)C/C(C)=C/CC/C(C)=C\CCC2(C)O (stereo not drawn) [NSC46728] | 93.27

Same assay, conditions: screen, single dose 100 µM, single replicate; residual AlphaLISA signal normalized to DMSO control; listed as 59258

Row | SMILES | IN-GCN2 interaction (%)
59 | O=C(O)C1(O)C[C@@H](O)C(O)[C@H](O)C1 (stereo partly drawn) [NSC59258] | 71.78

Same assay, conditions: screen, single dose 100 µM, single replicate; residual AlphaLISA signal normalized to DMSO control; listed as 63701

Row | SMILES | IN-GCN2 interaction (%)
60 | N#Cc1cn([C@@H]2O[C@H](CO)[C@@H](O)[C@H]2O)c2ncnc(N)c12 [NSC63701] | 116.97
